Assay results: patent US11878063B2, “Engineered ligands and uses thereof” (Children's Medical Center Corporation, priority 2019, dated 2024)
Entries after “also recorded” stand apart in the source; their conditions may differ. Square brackets hold non-standard residues; d marks the D form. Peptide text beside a SMILES is read from it. Aib = CC(C)(N)C(=O)O

What was measured:
PTHR1YFPΔECD = test: Flow cytometry staining by VHH-Alexafluor647 of HEK293 cells expressing PTHR1YFPΔECD; format: binding, human
Description: (§1) Flow cytometry. Suspensions of cells in PBS were stained for 1 hour on ice in the presence of indicated concentrations of VHH probes functionalized with Alexafluor647. Cells were pelleted by centrifugation and washed with PBS prior to analysis by flow cytometry (BD Accuri C6). Gating was performed on forward scatter/side scatter profiles to analyze intact cells. Data was analyzed using FlowJo version 7.6. The median fluorescent intensity (MFI) of stained cells was used to generate VHH binding dose response curves (FIG. 20).

PTHR1GFP = test: Flow cytometry staining by VHH-Alexafluor647 of HEK293 cells expressing PTHR1GFP; format: binding, human; conditions: 100 nM VHH
Description: FIGS. 17A-17C: Use of PTHR1-GFP. (FIG. 17A) Hypothetical structure of PTHR1 with GFP engrafted into exon 2 bound to a GFP binding nanobody. (FIG. 17B) Flow cytometry analysis of cells stably expressing PTHR1-GFP. HEK293 cell lines in suspension were incubated on ice with 100 nM VHH sortagged with Alexafluor647, pelleted by centrifugation, washed and analyzed. […] This weak staining is likely related to the inability of VHHGFP to tightly bind the pH-sensitive GFP variant known as pHluorin2 engrafted into the receptor (ref. 19, main text). (FIG. 17C) HEK293 cells stably expressing PTHR1-GFP were treated with varied doses of the indicated peptides or conjugates and activation was assessed by measuring luminescence from a cAMP-activated luciferase variant. Values listed represent EC50 values (mean±SD). Each value comes from ≥3 independent experiments. Further details, including the number of replicates for each measurement and the normalized maximal responses induced, are reported in Table 5.
as §1, with “The median fluorescent intensity (MFI) of stained cells was used to generate VHH binding dose response curves (FIG. 20).” left out

human PTHR1 = target: T1, human PTHR1 (Homo sapiens, UniProt Q03431); test: cAMP induction (cAMP-responsive luciferase) in HEK293 cells stably expressing human PTHR1; format: cell-based
T1 construct: expressed in transfected cells
T1 sequence (Q03431 27-593): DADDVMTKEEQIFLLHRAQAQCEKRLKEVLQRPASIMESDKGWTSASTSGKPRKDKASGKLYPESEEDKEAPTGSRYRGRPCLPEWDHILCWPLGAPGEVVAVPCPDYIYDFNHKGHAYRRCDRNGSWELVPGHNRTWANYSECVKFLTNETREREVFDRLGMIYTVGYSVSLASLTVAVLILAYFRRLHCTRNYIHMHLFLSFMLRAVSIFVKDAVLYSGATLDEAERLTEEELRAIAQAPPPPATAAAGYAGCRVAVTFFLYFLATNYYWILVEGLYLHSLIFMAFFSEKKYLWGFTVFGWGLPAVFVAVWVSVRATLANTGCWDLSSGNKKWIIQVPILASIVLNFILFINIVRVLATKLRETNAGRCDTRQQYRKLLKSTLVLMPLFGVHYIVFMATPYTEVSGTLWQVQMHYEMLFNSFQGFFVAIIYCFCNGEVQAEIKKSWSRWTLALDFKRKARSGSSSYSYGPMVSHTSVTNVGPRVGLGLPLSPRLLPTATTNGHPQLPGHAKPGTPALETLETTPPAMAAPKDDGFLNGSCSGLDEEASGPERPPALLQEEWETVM
Description: (§2) Measurement of cAMP response. These assays were performed as previously described^27. […] Confluent monolayers of cells were pre-incubated with CO2 independent medium containing D-luciferin (0.5 mM) at 37° C. until a stable baseline level of luminescence was established (20 min). Varying concentrations of ligands were then added, and the time course of luminescence response was recorded using BioTek plate reader.
(§3) Data calculations. Data were processed using Microsoft Excel and GraphPad Prism 6. Data from cAMP dose-response assays were analyzed using a sigmoidal dose-response model with variable slope. Data sets were statistically compared by using Student's t test (two-tailed) assuming unequal variances for the two sets.

PTHR16E = target: T2, PTHR16E (Homo sapiens, UniProt Q03431, A83I/D81R/G76A/K80A/K82Q/P78E/R79L/S71Q/S73D/S75E/T74Q); test: cAMP induction in HEK293 cells stably expressing PTHR16E (6E/Ubc6e epitope tag in exon 2 segment); format: cell-based
T2 construct: expressed in transfected cells
T2 sequence (Q03431 27-593 S71Q/S73D/T74Q/S75E/G76A/P78E/R79L/K80A/D81R/K82Q/A83I): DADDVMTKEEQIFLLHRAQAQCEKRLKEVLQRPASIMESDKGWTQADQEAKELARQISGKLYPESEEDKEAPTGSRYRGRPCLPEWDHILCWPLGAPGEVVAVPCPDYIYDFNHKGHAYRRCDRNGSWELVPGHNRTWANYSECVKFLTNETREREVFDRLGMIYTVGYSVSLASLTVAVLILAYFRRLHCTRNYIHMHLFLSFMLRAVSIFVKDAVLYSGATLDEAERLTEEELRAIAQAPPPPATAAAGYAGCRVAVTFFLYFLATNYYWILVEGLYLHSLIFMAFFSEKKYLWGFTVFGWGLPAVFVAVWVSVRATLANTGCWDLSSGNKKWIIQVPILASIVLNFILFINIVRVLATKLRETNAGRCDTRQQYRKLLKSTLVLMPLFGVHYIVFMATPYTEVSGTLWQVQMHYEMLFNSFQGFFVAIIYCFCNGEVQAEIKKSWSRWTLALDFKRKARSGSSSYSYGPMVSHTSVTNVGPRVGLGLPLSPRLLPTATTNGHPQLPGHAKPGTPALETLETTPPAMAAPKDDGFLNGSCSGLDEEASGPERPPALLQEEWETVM
Description: Measurement of cAMP response. These assays were performed as previously described^27. Briefly, HEK-293-derived cell lines that stably express the Glosensor cAMP reporter (Promega Corp.)^30 and PTHR1, a PTHR1 variant, or PTHR2 were seeded into white sided 96 well plates (50,000 cells/well) and grown to confluency. Confluent monolayers of cells were pre-incubated with CO2 independent medium containing D-luciferin (0.5 mM) at 37° C. until a stable baseline level of luminescence was established (20 min). Varying concentrations of ligands were then added, and the time course of luminescence response was recorded using BioTek plate reader.
as §3
The portion of PTHR1 encoded by exon 2 is not resolved in structural studies (FIG. 12—Panel d)^13, 14, 17, is not important for ligand binding^18, and in past work has been targeted as a site for receptor modification^18, 19. A construct was generated that encodes a PTHR1 variant in which a 14-residue fragment from exon 2 was replaced with a 14-mer epitope tag from the intracellular protein UBC6e (PTHR16E, FIG. 12—Panel d)^20. A receptor construct in which a pH-sensitive green fluorescent protein variant (GFP) was inserted into the portion of the receptor encoded by exon 2 (PTHR1GFP in FIGS. 17A to 17C)^19. Another version of PTHR1 in which yellow fluorescent protein (YFP) replaces the entire extracellular domain (PTHR1YFPΔECD, FIG. 12—Panel e)^21, was also used.

rat PTHR1 [1] = target: T3, rat PTHR1 (Rattus norvegicus, UniProt P25961); test: cAMP induction in HEK293 cells stably expressing rat PTHR1; format: cell-based
T3 construct: expressed in transfected cells
T3 sequence (P25961 27-591): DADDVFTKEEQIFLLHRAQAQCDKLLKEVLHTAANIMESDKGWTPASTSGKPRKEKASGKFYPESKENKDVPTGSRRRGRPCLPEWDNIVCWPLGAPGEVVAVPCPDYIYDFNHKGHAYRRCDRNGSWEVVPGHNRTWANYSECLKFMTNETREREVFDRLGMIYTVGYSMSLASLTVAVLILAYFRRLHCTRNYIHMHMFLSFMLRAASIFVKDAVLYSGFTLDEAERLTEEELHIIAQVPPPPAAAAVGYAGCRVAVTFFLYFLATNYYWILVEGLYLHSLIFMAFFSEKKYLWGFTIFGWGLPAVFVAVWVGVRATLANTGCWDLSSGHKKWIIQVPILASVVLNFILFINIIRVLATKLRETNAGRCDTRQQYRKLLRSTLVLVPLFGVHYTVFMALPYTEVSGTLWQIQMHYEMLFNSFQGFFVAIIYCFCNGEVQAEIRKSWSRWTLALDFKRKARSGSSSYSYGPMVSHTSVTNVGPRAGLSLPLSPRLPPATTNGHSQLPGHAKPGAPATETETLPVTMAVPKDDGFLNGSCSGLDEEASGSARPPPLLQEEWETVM
Description: as §2, §3

PTHR2 [2] = target: T4, PTHR2 (Homo sapiens, UniProt P49190); test: cAMP induction in HEK293 cells stably expressing human PTHR2; format: cell-based; conditions: at 100 uM
T4 construct: expressed in transfected cells
T4 sequence (P49190 25-550): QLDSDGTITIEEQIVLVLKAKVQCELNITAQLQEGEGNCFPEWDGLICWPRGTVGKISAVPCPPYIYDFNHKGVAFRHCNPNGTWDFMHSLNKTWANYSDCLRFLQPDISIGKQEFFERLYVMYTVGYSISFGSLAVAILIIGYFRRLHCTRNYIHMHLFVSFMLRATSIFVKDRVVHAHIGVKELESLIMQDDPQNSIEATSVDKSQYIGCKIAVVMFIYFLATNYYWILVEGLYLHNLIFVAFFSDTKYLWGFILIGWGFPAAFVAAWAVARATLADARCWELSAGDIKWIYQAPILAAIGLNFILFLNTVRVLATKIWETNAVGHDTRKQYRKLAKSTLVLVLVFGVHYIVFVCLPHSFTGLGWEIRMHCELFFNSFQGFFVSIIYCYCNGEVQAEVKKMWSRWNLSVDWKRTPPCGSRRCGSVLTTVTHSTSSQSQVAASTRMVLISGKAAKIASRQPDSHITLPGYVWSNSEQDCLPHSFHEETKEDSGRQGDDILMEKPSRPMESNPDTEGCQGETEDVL
Description: as §2, §3

PTHR1 = test: Flow cytometry staining by VHH-Alexafluor647 of HEK293 cells expressing PTHR1 constructs that retain the ECD; format: binding, human; conditions: 100 nM VHH
Description: as §1

PTHR2 [3] = target: T4, PTHR2; test: Flow cytometry staining by VHH-Alexafluor647 of HEK293 cells expressing PTHR2; format: binding; conditions: 100 nM VHH; listed as VHH22A3
Description: as §1

rat PTHR1 [4] = target: T3, rat PTHR1; test: Flow cytometry staining by VHH-Alexafluor647 of HEK293 cells expressing rat PTHR1; format: binding; conditions: 100 nM VHH
Description: as §1

Molecule: VHHGFP: nanobody that binds GFP and YFP, SEQ ID NO: 73
- staining of PTHR1YFPΔECD cells (in words) (PTHR1YFPΔECD; 100 nM VHH): stained
- EC50 (PTHR1YFPΔECD; flow cytometry, on ice, read-out: half-maximal staining concentration, PTHR1YFP-del-NT cells): < 10 nM
- staining of PTHR1GFP cells (in words) (PTHR1GFP): only weakly stained

Molecule: CC[C@H](C)[C@H](NC(=O)[C@H](CCC(=O)O)NC(=O)C(C)(C)NC(=O)[C@@H](NC(=O)[C@H](C)N)C(C)C)C(=O)N[C@@H](CCC(N)=O)C(=O)N[C@@H](CC(C)C)C(=O)N[C@@H](CCSC)C(=O)N[C@@H](Cc1c[nH]cn1)C(=O)N[C@@H](CCC(N)=O)C(=O)N[C@@H](CCCNC(=N)N)C(=O)N[C@@H](CS)C(N)=O [PTH(1-11)] (H-AV[Aib]EIQLMHQRC-NH2)
- EC50 (human PTHR1): 516 ± 238 nM
- EC50 (PTHR16E): 94 ± 74 nM
- EC50 (rat PTHR1 [1]): 120 ± 90.3 nM
- response at 100 uM, hPTHR2 (PTHR2 [2]): 20%

B1: VHHPTHR: nanobody that recognizes the PTHR1 extracellular domain, SEQ ID NO: 74, from US 2010/0062004 (protein)
VHH: EVQLVESGGGLVQAGGSLRLSCAASGNIFANNIMGWYRQPPGKEREFVAHVSHDGDSMYAVSVKGRFAISRKDATNLYLQMNSLKPEDTAIYFCRLLNIPTQGRMEGFWGQGTQVTVSS
- binding to PTHR1 constructs retaining the ECD (in words) (PTHR1): bound all constructs that retained the PTHR1 ECD; also recorded: binds to PTHR1
- binding to PTHR2 (in words) (PTHR2 [3]): lack of binding
- binding to rat PTHR1 (in words) (rat PTHR1 [4]): bound
